{"source": "ChEMBL document CHEMBL4052759", "about": "“Discovery of DS79182026: A potent orally active hepcidin production inhibitor” (Bioorg Med Chem Lett, 2017)", "key": {"[1]": {"biological_target": "T1, Protein kinase C zeta type (Homo sapiens) (UniProt Q05513)", "T1 sequence (whole entry)": "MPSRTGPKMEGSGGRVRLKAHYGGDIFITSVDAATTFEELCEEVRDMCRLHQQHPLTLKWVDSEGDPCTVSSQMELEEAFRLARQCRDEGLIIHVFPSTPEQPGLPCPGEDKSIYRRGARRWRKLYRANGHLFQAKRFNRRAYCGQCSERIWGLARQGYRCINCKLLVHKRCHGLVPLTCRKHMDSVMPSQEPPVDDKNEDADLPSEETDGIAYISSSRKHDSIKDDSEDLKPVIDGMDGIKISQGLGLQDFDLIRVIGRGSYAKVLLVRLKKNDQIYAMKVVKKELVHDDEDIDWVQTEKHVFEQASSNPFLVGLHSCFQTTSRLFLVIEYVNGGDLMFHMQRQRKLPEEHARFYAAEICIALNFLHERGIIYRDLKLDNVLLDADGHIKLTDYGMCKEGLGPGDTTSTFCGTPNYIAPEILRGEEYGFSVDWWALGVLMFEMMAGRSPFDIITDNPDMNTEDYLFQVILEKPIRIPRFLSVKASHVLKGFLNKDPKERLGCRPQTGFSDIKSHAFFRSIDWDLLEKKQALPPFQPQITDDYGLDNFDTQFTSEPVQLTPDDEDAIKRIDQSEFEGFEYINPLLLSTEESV", "test": "Inhibition of PKC-zeta (unknown origin) at 0.078 uM relative to control"}, "[2]": {"biological_target": "Serine/threonine-protein kinase Nek6 (Homo sapiens) (UniProt Q9HC98)", "test": "Inhibition of NEK6 (unknown origin) at 0.49 uM relative to control"}, "[3]": {"biological_target": "Cytoplasmic tyrosine-protein kinase BMX (Homo sapiens) (UniProt P51813)", "sequence (P51813 whole entry)": "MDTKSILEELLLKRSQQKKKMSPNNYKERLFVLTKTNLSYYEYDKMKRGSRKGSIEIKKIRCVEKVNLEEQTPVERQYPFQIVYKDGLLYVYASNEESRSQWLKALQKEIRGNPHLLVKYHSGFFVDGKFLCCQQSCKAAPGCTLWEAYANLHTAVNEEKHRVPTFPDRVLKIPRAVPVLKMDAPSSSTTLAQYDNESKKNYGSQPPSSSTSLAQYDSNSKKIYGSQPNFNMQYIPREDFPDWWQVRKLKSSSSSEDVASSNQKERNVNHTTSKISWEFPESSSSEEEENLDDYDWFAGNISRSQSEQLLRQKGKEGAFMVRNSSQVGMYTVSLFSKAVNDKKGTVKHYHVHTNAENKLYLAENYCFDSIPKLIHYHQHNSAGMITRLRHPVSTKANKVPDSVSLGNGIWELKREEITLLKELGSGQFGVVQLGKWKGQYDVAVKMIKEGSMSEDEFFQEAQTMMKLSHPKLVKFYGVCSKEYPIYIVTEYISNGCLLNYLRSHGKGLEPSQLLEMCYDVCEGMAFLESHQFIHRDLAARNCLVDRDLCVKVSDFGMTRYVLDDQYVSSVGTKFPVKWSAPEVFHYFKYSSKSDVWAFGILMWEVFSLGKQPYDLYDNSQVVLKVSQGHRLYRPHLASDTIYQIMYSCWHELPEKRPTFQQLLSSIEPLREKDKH", "test": "Inhibition of BMX (unknown origin) at 0.49 uM relative to control"}, "[4]": {"biological_target": "AMPK alpha2/beta1/gamma1 (Homo sapiens) (UniProt P54646+P54619+Q9Y478)", "sequence (P54619 whole entry partner)": "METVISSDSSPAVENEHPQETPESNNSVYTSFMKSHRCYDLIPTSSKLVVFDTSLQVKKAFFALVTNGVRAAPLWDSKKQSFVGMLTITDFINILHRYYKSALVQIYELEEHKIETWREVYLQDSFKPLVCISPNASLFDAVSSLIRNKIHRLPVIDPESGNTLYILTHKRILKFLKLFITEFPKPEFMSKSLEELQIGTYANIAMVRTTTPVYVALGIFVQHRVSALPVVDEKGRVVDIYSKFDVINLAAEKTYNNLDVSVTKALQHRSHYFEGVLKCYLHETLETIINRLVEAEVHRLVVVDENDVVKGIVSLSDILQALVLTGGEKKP", "sequence (P54646 whole entry)": "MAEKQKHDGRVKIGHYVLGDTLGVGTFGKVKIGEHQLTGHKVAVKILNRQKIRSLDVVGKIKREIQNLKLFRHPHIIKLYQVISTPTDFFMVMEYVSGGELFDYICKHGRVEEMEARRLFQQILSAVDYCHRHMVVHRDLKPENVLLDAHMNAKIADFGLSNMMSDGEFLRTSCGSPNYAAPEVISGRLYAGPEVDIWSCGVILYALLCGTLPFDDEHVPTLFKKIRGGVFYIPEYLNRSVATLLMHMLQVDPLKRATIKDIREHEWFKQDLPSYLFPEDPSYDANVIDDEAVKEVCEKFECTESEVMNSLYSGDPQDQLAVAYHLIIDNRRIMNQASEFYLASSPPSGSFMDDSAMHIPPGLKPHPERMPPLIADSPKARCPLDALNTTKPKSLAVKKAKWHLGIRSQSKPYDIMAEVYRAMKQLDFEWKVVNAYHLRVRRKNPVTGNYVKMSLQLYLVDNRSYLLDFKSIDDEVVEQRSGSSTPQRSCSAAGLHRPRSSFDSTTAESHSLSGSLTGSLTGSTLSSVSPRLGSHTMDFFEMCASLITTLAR", "sequence (Q9Y478 2-270 partner limits assumed)": "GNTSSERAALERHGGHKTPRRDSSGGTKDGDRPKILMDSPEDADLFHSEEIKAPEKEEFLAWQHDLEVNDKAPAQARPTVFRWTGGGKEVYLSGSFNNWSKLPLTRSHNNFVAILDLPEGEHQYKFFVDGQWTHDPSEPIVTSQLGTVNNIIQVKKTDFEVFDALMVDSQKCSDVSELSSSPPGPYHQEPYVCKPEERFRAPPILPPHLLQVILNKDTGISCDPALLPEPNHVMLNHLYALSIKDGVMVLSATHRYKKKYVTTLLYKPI", "test": "Inhibition of AMPK-alpha2/beta1/gamma1 (unknown origin) at 0.49 uM relative to control", "assay_type": "protein-complex assay"}, "[5]": {"biological_target": "Phosphorylase b kinase gamma catalytic chain, skeletal muscle/heart isoform (Homo sapiens) (UniProt Q16816)", "sequence (Q16816 whole entry, looked up, canonical isoform)": "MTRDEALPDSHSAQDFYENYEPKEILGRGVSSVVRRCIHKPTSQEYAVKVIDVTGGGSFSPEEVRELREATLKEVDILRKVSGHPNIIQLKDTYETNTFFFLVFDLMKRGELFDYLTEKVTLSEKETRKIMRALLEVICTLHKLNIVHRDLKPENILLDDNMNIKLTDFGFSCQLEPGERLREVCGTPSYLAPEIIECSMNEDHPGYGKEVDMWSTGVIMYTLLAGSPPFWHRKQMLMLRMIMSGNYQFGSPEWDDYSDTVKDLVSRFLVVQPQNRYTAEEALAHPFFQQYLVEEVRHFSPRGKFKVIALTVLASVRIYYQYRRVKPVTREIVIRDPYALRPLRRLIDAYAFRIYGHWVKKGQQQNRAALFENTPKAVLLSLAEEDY", "test": "Inhibition of PhKg1 (unknown origin) at 0.49 uM relative to control"}, "[6]": {"biological_target": "Leukocyte tyrosine kinase receptor (Homo sapiens) (UniProt P29376)", "test": "Inhibition of LTK (unknown origin) at 0.49 uM relative to control"}, "[7]": {"biological_target": "Ephrin type-A receptor 2 (Homo sapiens) (UniProt P29317)", "sequence (P29317 whole entry)": "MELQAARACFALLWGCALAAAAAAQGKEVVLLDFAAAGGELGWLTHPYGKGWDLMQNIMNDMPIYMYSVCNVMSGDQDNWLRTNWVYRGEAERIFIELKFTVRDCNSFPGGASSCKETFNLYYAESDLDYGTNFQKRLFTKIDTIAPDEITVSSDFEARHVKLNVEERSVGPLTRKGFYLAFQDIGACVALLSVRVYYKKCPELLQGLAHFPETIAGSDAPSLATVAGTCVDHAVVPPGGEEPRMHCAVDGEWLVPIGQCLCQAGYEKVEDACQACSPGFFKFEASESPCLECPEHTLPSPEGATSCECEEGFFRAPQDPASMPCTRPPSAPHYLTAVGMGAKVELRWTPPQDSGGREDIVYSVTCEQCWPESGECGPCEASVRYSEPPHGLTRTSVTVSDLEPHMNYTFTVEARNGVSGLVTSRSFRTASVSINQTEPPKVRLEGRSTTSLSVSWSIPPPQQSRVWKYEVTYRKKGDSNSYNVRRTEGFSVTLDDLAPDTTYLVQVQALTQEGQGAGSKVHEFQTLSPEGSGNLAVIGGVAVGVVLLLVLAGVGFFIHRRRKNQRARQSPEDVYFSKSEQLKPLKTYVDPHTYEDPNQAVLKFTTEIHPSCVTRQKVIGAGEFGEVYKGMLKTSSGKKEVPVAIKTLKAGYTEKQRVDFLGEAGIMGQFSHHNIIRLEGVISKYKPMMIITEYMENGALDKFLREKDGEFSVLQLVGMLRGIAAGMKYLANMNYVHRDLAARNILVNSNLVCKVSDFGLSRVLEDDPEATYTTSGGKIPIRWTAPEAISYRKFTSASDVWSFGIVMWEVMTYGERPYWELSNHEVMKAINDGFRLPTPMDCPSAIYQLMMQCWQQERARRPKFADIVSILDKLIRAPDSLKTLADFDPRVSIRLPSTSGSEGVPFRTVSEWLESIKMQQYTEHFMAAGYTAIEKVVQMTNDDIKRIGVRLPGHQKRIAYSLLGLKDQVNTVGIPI", "test": "Inhibition of EPHA2 (unknown origin) at 0.49 uM relative to control"}, "[8]": {"biological_target": "Serine/threonine-protein kinase D3 (Homo sapiens) (UniProt O94806)", "sequence (O94806 whole entry)": "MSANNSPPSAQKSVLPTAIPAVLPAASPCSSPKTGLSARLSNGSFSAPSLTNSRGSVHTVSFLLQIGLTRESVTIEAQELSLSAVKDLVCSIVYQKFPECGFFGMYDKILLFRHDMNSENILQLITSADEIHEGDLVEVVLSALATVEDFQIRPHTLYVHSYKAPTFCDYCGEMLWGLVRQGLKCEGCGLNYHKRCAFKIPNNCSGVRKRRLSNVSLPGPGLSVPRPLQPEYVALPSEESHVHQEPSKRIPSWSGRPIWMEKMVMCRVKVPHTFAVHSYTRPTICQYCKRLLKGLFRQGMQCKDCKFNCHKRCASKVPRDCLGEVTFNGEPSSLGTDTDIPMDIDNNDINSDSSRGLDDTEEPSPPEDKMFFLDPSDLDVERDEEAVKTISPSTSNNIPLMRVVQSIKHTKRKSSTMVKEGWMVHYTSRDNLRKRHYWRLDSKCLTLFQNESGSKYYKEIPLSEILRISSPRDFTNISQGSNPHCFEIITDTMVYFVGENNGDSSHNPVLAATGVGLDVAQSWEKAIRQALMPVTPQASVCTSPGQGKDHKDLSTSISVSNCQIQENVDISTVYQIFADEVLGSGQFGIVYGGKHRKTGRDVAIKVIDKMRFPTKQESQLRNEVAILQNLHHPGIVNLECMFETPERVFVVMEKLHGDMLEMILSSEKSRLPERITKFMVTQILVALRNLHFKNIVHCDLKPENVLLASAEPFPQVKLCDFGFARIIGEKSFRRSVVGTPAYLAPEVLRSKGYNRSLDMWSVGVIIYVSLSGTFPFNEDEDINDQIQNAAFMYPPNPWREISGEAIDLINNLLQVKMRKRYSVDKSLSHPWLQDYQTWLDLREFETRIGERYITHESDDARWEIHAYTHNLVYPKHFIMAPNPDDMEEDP", "test": "Inhibition of PKD3 (unknown origin) at 0.49 uM relative to control"}, "[9]": {"test_system": "Fibroblast growth factor receptor 1 (Homo sapiens), P11362 [V561M]", "sequence (P11362 whole entry V561M)": "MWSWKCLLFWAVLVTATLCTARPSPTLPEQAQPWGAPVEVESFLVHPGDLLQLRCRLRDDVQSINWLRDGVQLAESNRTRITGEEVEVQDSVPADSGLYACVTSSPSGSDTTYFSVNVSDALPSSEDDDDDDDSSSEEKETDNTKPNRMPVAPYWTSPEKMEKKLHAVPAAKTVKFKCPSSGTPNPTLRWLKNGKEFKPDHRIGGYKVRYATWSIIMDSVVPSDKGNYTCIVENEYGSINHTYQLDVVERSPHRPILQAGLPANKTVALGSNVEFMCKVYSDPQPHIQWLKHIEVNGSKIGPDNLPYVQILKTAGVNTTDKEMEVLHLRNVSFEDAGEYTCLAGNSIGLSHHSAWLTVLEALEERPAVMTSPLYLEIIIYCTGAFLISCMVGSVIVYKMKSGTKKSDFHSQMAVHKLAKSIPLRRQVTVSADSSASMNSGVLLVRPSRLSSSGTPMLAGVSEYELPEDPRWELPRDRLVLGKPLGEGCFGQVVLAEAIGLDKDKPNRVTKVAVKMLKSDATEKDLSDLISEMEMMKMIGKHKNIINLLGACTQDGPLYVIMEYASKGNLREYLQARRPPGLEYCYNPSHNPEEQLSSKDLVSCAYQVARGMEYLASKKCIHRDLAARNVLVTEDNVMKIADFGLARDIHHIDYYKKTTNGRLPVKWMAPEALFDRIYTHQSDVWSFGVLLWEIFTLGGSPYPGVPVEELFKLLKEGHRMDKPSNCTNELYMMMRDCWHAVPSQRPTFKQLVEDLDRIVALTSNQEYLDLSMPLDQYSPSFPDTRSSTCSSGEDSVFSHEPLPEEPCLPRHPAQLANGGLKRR", "test": "Inhibition of FGFR1 V561M mutant (unknown origin) at 0.49 uM relative to control"}, "[10]": {"biological_target": "Testis-specific serine/threonine-protein kinase 1 (Homo sapiens) (UniProt Q9BXA7)", "test": "Inhibition of TSSK1 (unknown origin) at 0.49 uM relative to control"}, "[11]": {"biological_target": "Ribosomal protein S6 kinase alpha-4 (Homo sapiens) (UniProt O75676)", "test": "Inhibition of MSK2 (unknown origin) at 0.49 uM relative to control"}, "[12]": {"biological_target": "Proto-oncogene tyrosine-protein kinase ROS (Homo sapiens) (UniProt P08922)", "test": "Inhibition of ROS (unknown origin) at 0.49 uM relative to control"}, "[13]": {"biological_target": "Death-associated protein kinase 1 (Homo sapiens) (UniProt P53355)", "test": "Inhibition of DAPK1 (unknown origin) at 0.49 uM relative to control"}, "[14]": {"biological_target": "Tyrosine-protein kinase receptor TYRO3 (Homo sapiens) (UniProt Q06418)", "test": "Inhibition of TYRO3 (unknown origin) at 0.49 uM relative to control"}, "[15]": {"biological_target": "Serine/threonine-protein kinase DCLK2 (Homo sapiens) (UniProt Q8N568)", "test": "Inhibition of DCAMKL2 (unknown origin) at 0.49 uM relative to control"}, "[16]": {"biological_target": "Calcium/calmodulin-dependent protein kinase type II subunit beta (Homo sapiens) (UniProt Q13554)", "test": "Inhibition of CAMK2 (unknown origin) at 0.49 uM relative to control"}, "[17]": {"biological_target": "Homeodomain-interacting protein kinase 1 (Homo sapiens) (UniProt Q86Z02)", "test": "Inhibition of HIPK1 (unknown origin) at 0.49 uM relative to control"}, "[18]": {"biological_target": "Fibroblast growth factor receptor 2 (Homo sapiens) (UniProt P21802)", "test": "Inhibition of FGFR2 (unknown origin) at 0.45 uM relative to control"}, "[19]": {"biological_target": "Vascular endothelial growth factor receptor 1 (Homo sapiens) (UniProt P17948)", "test": "Inhibition of FLT1 (unknown origin) at 0.45 uM relative to control"}, "[20]": {"biological_target": "Ephrin type-A receptor 2 (Homo sapiens) (UniProt P29317)", "test": "Inhibition of EPHA2 (unknown origin) at 0.45 uM relative to control"}, "[21]": {"biological_target": "Receptor tyrosine-protein kinase erbB-4 (Homo sapiens) (UniProt Q15303)", "test": "Inhibition of HER4 (unknown origin) at 0.45 uM relative to control"}, "[22]": {"biological_target": "Cyclin-dependent kinase 9 (Homo sapiens) (UniProt P50750)", "test": "Inhibition of CDK9 (unknown origin) at 0.45 uM relative to control"}, "[23]": {"biological_target": "T2, Calcium/calmodulin-dependent protein kinase type IV (Homo sapiens) (UniProt Q16566)", "T2 sequence (whole entry)": "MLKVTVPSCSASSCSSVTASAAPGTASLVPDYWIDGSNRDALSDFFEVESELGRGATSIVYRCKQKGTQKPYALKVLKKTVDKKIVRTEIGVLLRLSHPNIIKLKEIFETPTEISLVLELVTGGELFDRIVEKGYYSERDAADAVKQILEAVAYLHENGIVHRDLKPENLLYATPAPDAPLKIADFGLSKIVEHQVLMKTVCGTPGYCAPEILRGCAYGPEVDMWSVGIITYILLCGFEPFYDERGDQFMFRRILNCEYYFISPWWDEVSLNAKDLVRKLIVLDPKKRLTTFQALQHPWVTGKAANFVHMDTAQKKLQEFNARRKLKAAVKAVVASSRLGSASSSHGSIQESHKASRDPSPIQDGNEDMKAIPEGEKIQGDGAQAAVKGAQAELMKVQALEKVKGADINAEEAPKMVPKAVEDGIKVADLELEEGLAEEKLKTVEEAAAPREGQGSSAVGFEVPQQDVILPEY", "test": "Inhibition of CAMK4 (unknown origin) at 0.45 uM relative to control"}, "[24]": {"biological_target": "Tyrosine-protein kinase Lyn (Homo sapiens) (UniProt P07948)", "test": "Inhibition of LYN (unknown origin) at 0.45 uM relative to control"}, "MAP4K2 (Homo sapiens)": {"test_system": "MAP4K2 (Homo sapiens)", "test": "Inhibition of GCK (unknown origin) at 0.45 uM relative to control"}, "[25]": {"biological_target": "NT-3 growth factor receptor (Homo sapiens) (UniProt Q16288)", "test": "Inhibition of TRKC (unknown origin) at 0.45 uM relative to control"}}, "data": [{"smiles": "COC(=O)Nc1noc2cc(-c3c(-c4ccccn4)n[nH]c3C)ccc12", "values": [{"measurement": "inhibition", "setting": "[1]", "result": 2.7, "unit": "%"}]}, {"smiles": "Cc1[nH]nc(C2CC2)c1-c1ccc2c(NC(=O)C3CC3)noc2c1", "values": [{"measurement": "inhibition", "setting": "[2]", "result": 2.7, "unit": "%"}, {"measurement": "inhibition", "setting": "[3]", "result": -0.7, "unit": "%"}, {"measurement": "inhibition", "setting": "[4]", "result": 3.3, "unit": "%"}, {"measurement": "inhibition", "setting": "[5]", "result": 2.3, "unit": "%"}, {"measurement": "inhibition", "setting": "[6]", "result": -3.3, "unit": "%"}, {"measurement": "inhibition", "setting": "[7]", "result": -0.3, "unit": "%"}, {"measurement": "inhibition", "setting": "[8]", "result": -4.3, "unit": "%"}, {"measurement": "inhibition", "setting": "[9]", "result": 3.7, "unit": "%"}, {"measurement": "inhibition", "setting": "[10]", "result": 1, "unit": "%"}, {"measurement": "inhibition", "setting": "[11]", "result": -3.7, "unit": "%"}, {"measurement": "inhibition", "setting": "[12]", "result": -2.3, "unit": "%"}, {"measurement": "inhibition", "setting": "[13]", "result": -2.7, "unit": "%"}, {"measurement": "inhibition", "setting": "[14]", "result": 8.7, "unit": "%"}, {"measurement": "inhibition", "setting": "[15]", "result": 2, "unit": "%"}, {"measurement": "inhibition", "setting": "[16]", "result": -7, "unit": "%"}, {"measurement": "inhibition", "setting": "[17]", "result": 1.7, "unit": "%"}]}, {"smiles": "Cc1n[nH]c(C)c1-c1ccc2c(NC(=O)c3ccc(N4CCN(C)CC4)cc3)n[nH]c2c1", "values": [{"measurement": "inhibition", "setting": "[18]", "result": 21.7, "unit": "%"}, {"measurement": "inhibition", "setting": "[19]", "result": 12.7, "unit": "%"}, {"measurement": "inhibition", "setting": "[20]", "result": 8, "unit": "%"}, {"measurement": "inhibition", "setting": "[21]", "result": -7, "unit": "%"}, {"measurement": "inhibition", "setting": "[22]", "result": 9.3, "unit": "%"}, {"measurement": "inhibition", "setting": "[23]", "result": 0, "unit": "%"}, {"measurement": "inhibition", "setting": "[24]", "result": 32.3, "unit": "%"}, {"measurement": "inhibition", "setting": "MAP4K2 (Homo sapiens)", "result": 66, "unit": "%"}, {"measurement": "inhibition", "setting": "[25]", "result": 95, "unit": "%"}]}]}
